According to the supplement of paper PMC11208160:

Assay: recombinant barcode read abundance after kanamycin selection (control-corrected) (log10(CPM+1)); higher = more efficient recombination; sequences stand for … in AGTGCAGAGAAAATCGGCCAGTTTTCTCTGCCTGCAGTCCGCATGCCGT…AGATTTATGCAGCGGACTGCCTTTCTCCCAAAGTGATAAACCGGACAGTATCATGGACCGGTTTTCCCGGTAATCCGTATTTGCAAGGTTGGTTTCACT; site = the 11-nt target
Method in brief: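 IS621 bridge RNA target-binding loops were paired with targets in a pooled library tested in E. coli. After co-electroporation with a donor plasmid, cells were plated in two replicates on chloramphenicol/ampicillin LB agar (control) and on chloramphenicol/ampicillin/kanamycin carrying 0.1 mM IPTG. Barcodes at recombinant junctions were counted as counts per million, averaged and control-corrected to give recombination efficiency. Values are log10(CPM+1).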
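Also: IS621 recombinase and bridge RNA in Escherichia coli cells.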

Sequence	recombinant barcode read abundance (log10)
TAGTTAGCTTGGGTTCTAACCTGTTGCCG (site TAGTTAGCTAG)	0.0808
TAGTTAGCTTGGGTTCTAACCTGTTGCCG (site TAGTTAGCTCG)	0.666
TAGTTAGCTTGGGTTCTAACCTGTTGCCG (site TAGTTAGCTGG)	0.00835
TAGTTAGCTTGGGTTCTAACCTGTTGCCG (site TAGTTAGCTTG)	0.0519
TAGTTATCTTGGGTTCTAACCTGTTGCTA (site AGACGTACTAC)	0.134
TAGTTATCTTGGGTTCTAACCTGTTGCTA (site TAGTTATCTTA)	0.0606
TAGTTGCCTTGGGTTCTAACCTGTTGCCT (site TAATTGCCTAG)	0.296
TAGTTGCCTTGGGTTCTAACCTGTTGCCT (site TACTTGCCTAG)	0
TAGTTGCCTTGGGTTCTAACCTGTTGCCT (site TAGTTGCCTAG)	0.565
TAGTTGCCTTGGGTTCTAACCTGTTGCCT (site TATTTGCCTAG)	0.0554
TATACACCTTGGGTTCTAACCTGTTGCGT (site CTCCGGGCTCT)	0.0474
TATACACCTTGGGTTCTAACCTGTTGCGT (site TATACACCTAC)	1.48
TATACCACTTGGGTTCTAACCTGTTGCCT (site TATACCACTAG)	0.541
TATACCACTTGGGTTCTAACCTGTTGCCT (site TCGACCACTAG)	0.103
TATATGACTTGGGTTCTAACCTGTTGCGG (site ATGCACGCTAG)	0.0662
TATATGACTTGGGTTCTAACCTGTTGCGG (site TATATGACTCC)	1.41
TATCCTCCTTGGGTTCTAACCTGTTGCCG (site GTGGAGTCTAC)	0.177
TATCCTCCTTGGGTTCTAACCTGTTGCCG (site TATCCTCCTCG)	0.318
TATCGGCCTTGGGTTCTAACCTGTTGCCT (site TAACGGCCTAG)	0.0814
TATCGGCCTTGGGTTCTAACCTGTTGCCT (site TACCGGCCTAG)	0.0568
TATCGGCCTTGGGTTCTAACCTGTTGCCT (site TAGCGGCCTAG)	0.0857
TATCGGCCTTGGGTTCTAACCTGTTGCCT (site TATCGGCCTAG)	0.0996

Sequence	recombinant barcode read abundance (log10)
TATGCGCCTTGGGTTCTAACCTGTTGCCT (site CATGTGCCTAG)	0.149
TATGCGCCTTGGGTTCTAACCTGTTGCCT (site TATGCGCCTAG)	0.327
TATGGGGCTTGGGTTCTAACCTGTTGCCT (site TATGAGGCTAG)	0.145
TATGGGGCTTGGGTTCTAACCTGTTGCCT (site TATGCGGCTAG)	0.0621
TATGGGGCTTGGGTTCTAACCTGTTGCCT (site TATGGGGCTAG)	0.246
TATGGGGCTTGGGTTCTAACCTGTTGCCT (site TATGTGGCTAG)	0.0518
TATGTACCTTGGGTTCTAACCTGTTGCCT (site AATGTACCTAG)	0.052
TATGTACCTTGGGTTCTAACCTGTTGCCT (site CATGTACCTAG)	0.234
TATGTACCTTGGGTTCTAACCTGTTGCCT (site GATGTACCTAG)	0.101
TATGTACCTTGGGTTCTAACCTGTTGCCT (site TATGTACCTAG)	1.46
TATGTAGCTTGGGTTCTAACCTGTTGCCA (site TATGTAGCTAG)	0.22
TATGTAGCTTGGGTTCTAACCTGTTGCCA (site TATGTAGCTCG)	0.0344
TATGTAGCTTGGGTTCTAACCTGTTGCCA (site TATGTAGCTGG)	0.201
TATGTAGCTTGGGTTCTAACCTGTTGCCA (site TATGTAGCTTG)	1.05
TATGTGGCTTGGGTTCTAACCTGTTGCCT (site TATGAGGCTAG)	0.551
TATGTGGCTTGGGTTCTAACCTGTTGCCT (site TATGCGGCTAG)	0.296
TATGTGGCTTGGGTTCTAACCTGTTGCCT (site TATGGGGCTAG)	0.0271
TATGTGGCTTGGGTTCTAACCTGTTGCCT (site TATGTGGCTAG)	0.179
TATGTGTCTTGGGTTCTAACCTGTTGCCT (site TAAGTGTCTAG)	1.67
TATGTGTCTTGGGTTCTAACCTGTTGCCT (site TACGTGTCTAG)	0.509
TATGTGTCTTGGGTTCTAACCTGTTGCCT (site TAGGTGTCTAG)	0.0112
TATGTGTCTTGGGTTCTAACCTGTTGCCT (site TATGTGTCTAG)	2.01

Sequence	recombinant barcode read abundance (log10)
TATTACCCTTGGGTTCTAACCTGTTGCCT (site TATTAACCTAG)	0.035
TATTACCCTTGGGTTCTAACCTGTTGCCT (site TATTACCCTAG)	0.739
TATTACCCTTGGGTTCTAACCTGTTGCCT (site TATTAGCCTAG)	0.0773
TATTACCCTTGGGTTCTAACCTGTTGCCT (site TATTATCCTAG)	0.12
TATTCTACTTGGGTTCTAACCTGTTGCGG (site TATTCTACTAC)	0.0937
TATTCTACTTGGGTTCTAACCTGTTGCGG (site TATTCTACTCC)	0.223
TATTCTACTTGGGTTCTAACCTGTTGCGG (site TATTCTACTGC)	0.101
TATTCTACTTGGGTTCTAACCTGTTGCGG (site TATTCTACTTC)	0.169
TATTGGCCTTGGGTTCTAACCTGTTGCGT (site ACGACTACTCG)	0.0203
TATTGGCCTTGGGTTCTAACCTGTTGCGT (site TATTGGCCTAC)	0.202
TATTTCTCTTGGGTTCTAACCTGTTGCCT (site AATTTCTCTAG)	0.0527
TATTTCTCTTGGGTTCTAACCTGTTGCCT (site CATTTCTCTAG)	0.0799
TATTTCTCTTGGGTTCTAACCTGTTGCCT (site GATTTCTCTAG)	0.0942
TATTTCTCTTGGGTTCTAACCTGTTGCCT (site TATTTCTCTAG)	0.157
TATTTGCCTTGGGTTCTAACCTGTTGCTG (site GCACCTGCTAG)	0.183
TATTTGCCTTGGGTTCTAACCTGTTGCTG (site TATTTGCCTCA)	0.0916
TCAAAGCCTTGGGTTCTAACCTGTTGCTG (site TCAAAGCCTCA)	0.252
TCAAAGCCTTGGGTTCTAACCTGTTGCTG (site TCACAGCCTCA)	0.204
TCAAAGCCTTGGGTTCTAACCTGTTGCTG (site TCAGAGCCTCA)	0.372
TCAAAGCCTTGGGTTCTAACCTGTTGCTG (site TCATAGCCTCA)	0.217
TCAAGACCTTGGGTTCTAACCTGTTGCCT (site TCAAGACCTAG)	0.617
TCAAGACCTTGGGTTCTAACCTGTTGCCT (site TCAAGACCTCG)	0.0935

Sequence	recombinant barcode read abundance (log10)
TCACAGCCTTGGGTTCTAACCTGTTGCTG (site TCAAAGCCTCA)	0.106
TCACAGCCTTGGGTTCTAACCTGTTGCTG (site TCACAGCCTCA)	0.476
TCACAGCCTTGGGTTCTAACCTGTTGCTG (site TCAGAGCCTCA)	0.176
TCACAGCCTTGGGTTCTAACCTGTTGCTG (site TCATAGCCTCA)	0.178
TCACAGTCTTGGGTTCTAACCTGTTGCCT (site TAACACTCTAG)	0.0324
TCACAGTCTTGGGTTCTAACCTGTTGCCT (site TCACAGTCTAG)	1.59
TCACATGCTTGGGTTCTAACCTGTTGCCT (site TCACATGCTAG)	1.28
TCACATGCTTGGGTTCTAACCTGTTGCCT (site TCACCTGCTAG)	0.0279
TCACATGCTTGGGTTCTAACCTGTTGCCT (site TCACGTGCTAG)	0.179
TCACATGCTTGGGTTCTAACCTGTTGCCT (site TCACTTGCTAG)	0.119
TCACATTCTTGGGTTCTAACCTGTTGCCT (site TCAAATTCTAG)	0.228
TCACATTCTTGGGTTCTAACCTGTTGCCT (site TCACATTCTAG)	0.31
TCACATTCTTGGGTTCTAACCTGTTGCCT (site TCAGATTCTAG)	0.183
TCACATTCTTGGGTTCTAACCTGTTGCCT (site TCATATTCTAG)	0.155
TCAGAGCCTTGGGTTCTAACCTGTTGCTG (site TCAAAGCCTCA)	0.025
TCAGAGCCTTGGGTTCTAACCTGTTGCTG (site TCACAGCCTCA)	0.0728
TCAGAGCCTTGGGTTCTAACCTGTTGCTG (site TCAGAGCCTCA)	1.28
TCAGAGCCTTGGGTTCTAACCTGTTGCTG (site TCATAGCCTCA)	0.0059
TCAGGAGCTTGGGTTCTAACCTGTTGCAG (site TCAGGAGCTCC)	0.0921
TCAGGAGCTTGGGTTCTAACCTGTTGCAG (site TCAGGAGCTCT)	1.57
